Measurements reported in ChEMBL document CHEMBL1144834, “Acremolides A-D, lipodepsipeptides from an Australian marine-derived fungus, Acremonium sp” (2008).
Calls of active or inactive are those of the source. The calls are words filed in the database; no cut-off is given here.

Key:
NS1 = assay: (§1) Cytotoxicity against mouse NS1 cells; assay type: functional
Bacillus subtilis = assay: Antibacterial activity against Bacillus subtilis; assay type: functional, organism-based
Candida albicans = assay: Antifungal activity against Candida albicans; assay type: functional, organism-based
[1] = as §1; assay type: functional

| Structure (SMILES) | Activity (NS1) | Activity (Bacillus subtilis) | Activity (Candida albicans) | LD99 [1] [µg/mL] |
| --- | --- | --- | --- | --- |
| CC[C@@H](C)[C@H]1NC(=O)C(C)C(O)CC(C(C)CCCCC(C)O)OC(=O)[C@@H]2CCCN2C1=O (stereo not given in full) | inactive | inactive | inactive | – |
| CC(O)CCCCC(C)C1CC(O)C(C)C(=O)N[C@H](Cc2ccccc2)C(=O)N2CCC[C@H]2C(=O)O1 (stereo not given in full) | inactive | inactive | inactive | – |
| C=C1[C@@H](C)[C@H]2[C@H](Cc3c[nH]c4ccccc34)NC(=O)[C@]23C(=O)/C=C/C(=O)[C@H](OC(C)=O)/C(C)=C\[C@@H](C)C/C=C/[C@H]3[C@@H]1O | – | – | – | 0.8 |
| CC(=O)CCCCC(C)C1CC(O)C(C)C(=O)N[C@H](Cc2ccccc2)C(=O)N2CCC[C@H]2C(=O)O1 (stereo not given in full) | inactive | inactive | inactive | – |
| CC(O)CCCCC(C)C1CC(O)C(C)C(=O)N[C@H](C(C)C)C(=O)N2CCC[C@H]2C(=O)O1 (stereo not given in full) | inactive | inactive | inactive | – |
| CC(=O)O[C@H]1C(=O)/C=C/C(=O)[C@@]23C(=O)N[C@@H](Cc4c[nH]c5ccccc45)[C@@H]2C(C)=C(C)[C@@H](O)[C@@H]3/C=C/C[C@H](C)/C=C\1C [19-O-ACETYLCHAETOGLOBOSIN B] | – | – | – | 1.6 |
| C/C=C/c1cccc(O)c1CO | inactive | – | – | – |
